Assay results taken from article PMC8170916, “Sublingual AKBA Exerts Antidepressant Effects in the Aβ-Treated Mouse Model” (Biomolecules, 2021).

Assays:
mice = assay: Open field test (locomotion); format: in vivo; conditions: 30 min after AKBA or vehicle administration
Experimental: Mice were placed in an open field arena and allowed to explore for 30 min [25]. After each trial, the arena floor was cleaned with 70% ethanol to avoid inter-assay bias. The movements of mice were video recorded and analyzed by ANY-maze tracking software (Ugo Basile-Varese, Gemonio, Italy). Locomotion was evaluated through total crossing measurements.

[1] = Cerebral AKBA quantification by GC-MS/IT after sublingual or intranasal administration; format: in vivo, mice; conditions: 5 mg/kg
Experimental: (§1) AKBA (Cayman Chemical Company) was dissolved in sunflower oil, this vehicle was chosen in order to maintain a better tasting and higher density of the final solution thus reducing reflux through the digestive tract. […] Ten µL of the solution (or vehicle alone) was sublingually administered to mice. For intranasal administration, requiring more hydrophilic solution, AKBA was dissolved in DMSO and saline (1:3, v/v), and given to mice at the same final dose of 5 mg/kg. Cerebral AKBA was quantified in a separate subset of mice at 5, 15 and 30 min after its administration, either sublingually or intranasally.
(§2) After administration, whole brains were put in 1 mL of a solution of chloroform/methanol (1:1 v/v), sonicated and then homogenates were centrifuged at 4 °C for 20 min (10,000 rpm). The pellets were then removed, and the remaining supernatants were dried on sodium sulphate anhydrous, filtered with 0.20 µm PTFE syringe filters and used for chemical analysis. The quantification of 3-O-acetyl-11-keto-β-boswellic acid (AKBA) was performed by using GC-MS/IT equipment composed of a gas chromatograph GC-7890B (Agilent Technologies, Santa Clara, CA, USA) coupled with an ion trap mass spectrometer IT-240 (Agilent Technologies).
The gas chromatograph was equipped with a VF-5 ms (Agilent J&W GC Columns) capillary column, 30 m × 0.25 mm i.d. × 0.25 µm. The column oven was set at 50 °C for 1 min after injection; then the temperature was increased from 50 °C to 300 °C with a ramp of 5 °C/min and a hold time of 10 min. The purge process was performed at the end of each run, increasing the oven temperature from 300 °C to 325 °C at 10 °C/min and a hold time of 1.5 min. The total time for each run was approximately 65 min. The injection volume was 2 µL (splitless) with a continuous flow rate of 1 mL/min of ultra-high purity helium (BIP®) and an injector temperature of 250 °C.
The MS electron multiplier voltage was set at 1450 V, and an ionization time of 65,000 µs was used, running in the electron impact (EI) mode. The transfer line, ion trap and manifold temperatures were set at 270 °C, 180 °C and 70 °C, respectively. The mass spectrometer firstly operated in full scan mode (50–700 m/z) with the ionizing voltage at 70 eV. […] Peaks at m/z 408 and m/z 393 were identified as M-AcOH-CO2 and M-AcOH-CO2-CH3. The peak at m/z 273 was identified as fragment A, resulting from retro-Diels–Alder fragmentation, while the peak at m/z 232 was identified as fragment B, generated from McLafferty fragmentation. These characteristic fragments were selected as a mass target to develop the MS acquisition method operating in single ion scan mode (SIS) to improve the LOD and LOQ for AKBA quantification. […]

5-LOX = tested on: 5-LOX; set-up: method as in PMID 9760176; conditions: cited from earlier work
[2] = Plasmatic AKBA levels after sublingual or intranasal administration; format: in vivo, mice; conditions: 5 mg/kg
Experimental: as §1, with “Cerebral AKBA was quantified in a separate subset of mice at 5, 15 and 30 min after its administration, either sublingually or intranasally.” left out
as §2, with “After administration, whole brains were put in 1 mL of a solution of chloroform/methanol (1:1 v/v), sonicated and then homogenates were centrifuged at 4 °C for 20 min (10,000 rpm).” left out
The gas chromatograph was equipped with a VF-5 ms (Agilent J&W GC Columns) capillary column, 30 m × 0.25 mm i.d. × 0.25 µm. […]
The MS electron multiplier voltage was set at 1450 V, and an ionization time of 65,000 µs was used, running in the electron impact (EI) mode. […] These characteristic fragments were selected as a mass target to develop the MS acquisition method operating in single ion scan mode (SIS) to improve the LOD and LOQ for AKBA quantification. […]

[3] = sublingual vs intranasal, 5, 15 and 30 min after administration

Locomotion in the open field test (mice): no difference | Crossing of the blood brain barrier ([1]; sublingual or intranasal): rapidly crossed the blood brain barrier | Time of highest cerebral AKBA concentrations after administration ([1]; sublingual or intranasal, sampled at 5, 15, 30 min): 5 min | Plasmatic AUCs, sublingual vs intranasal [2]: higher after sublingual administration
SMILES: CC(=O)O[C@@H]1CC[C@@]2(C)[C@@H](CC[C@]3(C)[C@@H]2C(=O)C=C2[C@@H]4[C@@H](C)[C@H](C)CC[C@]4(C)CC[C@]23C)[C@@]1(C)C(=O)O [AKBA, 3-O-acetyl-11-keto-β-boswellic acid]
Cerebral AUCs, sublingual vs intranasal ([1]; same dose by both routes): sublingual route of administration was characterized by higher bioavailability | Cerebral AKBA levels (whole brain) [1, 3]: significantly higher after sublingual administration compared to intranasal | 5-LOX inhibition (5-LOX): 5-LOX inhibitor | Plasmatic AKBA levels [2, 3]: significantly higher after sublingual administration compared to intranasal
